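Each compound was tested at five concentrations against cells in 96-well plates for 48 hours. Abbreviation: GI50, concentration required for 50% inhibition of growth.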 The source made the active and inactive calls. Cut-off read from the data, not from the text of the source: active = GI50 up to about 1.1 µM and inactive = higher.
Key:
Test in all cases: inhibition of tumour cell growth, NCI panel, 48 h
786-0 = test system: 786-0
A498 = test system: A498
A549 = test system: A549
ACHN = test system: ACHN
BT-549 = test system: BT-549
CAKI-1 = test system: CAKI-1
CCRF-CEM = test system: CCRF-CEM
COLO 205 = test system: COLO 205
DU-145 = test system: DU-145
EKVX = test system: EKVX
HCC 2998 = test system: HCC 2998
HCT-116 = test system: HCT-116
HCT-15 = test system: HCT-15
HOP-62 = test system: HOP-62
HOP-92 = test system: HOP-92
HT-29 = test system: HT-29
Hs-578T = test system: Hs-578T
IGROV-1 = test system: IGROV-1
K562 = test system: K562
KM12 = test system: KM12
LOX IMVI = test system: LOX IMVI
M14 = test system: M14
MCF7 = test system: MCF7
MDA-MB-231 = test system: MDA-MB-231
MDA-MB-435 = test system: MDA-MB-435
MOLT-4 = test system: MOLT-4
NCI-H226 = test system: NCI-H226
NCI-H23 = test system: NCI-H23
NCI-H522 = test system: NCI-H522
NCI/ADR-RES = test system: NCI/ADR-RES
OVCAR-3 = test system: OVCAR-3
OVCAR-4 = test system: OVCAR-4
OVCAR-5 = test system: OVCAR-5
OVCAR-8 = test system: OVCAR-8
PC-3 = test system: PC-3
RPMI-8226 = test system: RPMI-8226
RXF 393 = test system: RXF 393
SF-268 = test system: SF-268
SF-295 = test system: SF-295
SF-539 = test system: SF-539
SK-MEL-28 = test system: SK-MEL-28
SK-MEL-2 = test system: SK-MEL-2
SK-MEL-5 = test system: SK-MEL-5
SK-OV-3 = test system: SK-OV-3
SN12C = test system: SN12C
SNB-19 = test system: SNB-19
SNB-75 = test system: SNB-75
SW-620 = test system: SW-620
T47D = test system: T47D
TK-10 = test system: TK-10
U-251 = test system: U-251
UACC-257 = test system: UACC-257
UACC-62 = test system: UACC-62
UO-31 = test system: UO-31
NCI-H460 = test system: NCI-H460
SR = test system: SR
HL-60 = test system: HL-60
MDA-N = test system: MDA-N
Malme-3M = test system: Malme-3M

Measured: GI50

CCCCCCCCCCCCCCCCCCNc1ccn(C2OC(COP(=O)(O)O)C(O)C2O)c(=O)n1 (centres undefined)
> 100 µM: HCT-15
inactive: 786-0 > 100 µM | A498 > 100 µM | A549 > 100 µM | ACHN > 100 µM | BT-549 > 100 µM | CAKI-1 > 100 µM | CCRF-CEM > 100 µM | COLO 205 > 100 µM | DU-145 > 100 µM | EKVX > 100 µM | HCC 2998 > 100 µM | HCT-116 > 100 µM | HOP-62 > 100 µM | HOP-92 > 100 µM | HT-29 > 100 µM | Hs-578T > 100 µM | IGROV-1 > 100 µM | K562 > 100 µM | KM12 > 100 µM | LOX IMVI > 100 µM | M14 > 100 µM | MCF7 > 100 µM | MDA-MB-231 > 100 µM | MDA-MB-435 > 100 µM | MOLT-4 > 100 µM | NCI-H226 > 100 µM | NCI-H23 > 100 µM | NCI-H522 > 100 µM | NCI/ADR-RES > 100 µM | OVCAR-3 > 100 µM | OVCAR-4 > 100 µM | OVCAR-5 > 100 µM | OVCAR-8 > 100 µM | PC-3 > 100 µM | RPMI-8226 > 100 µM | RXF 393 > 100 µM | SF-268 > 100 µM | SF-295 > 100 µM | SF-539 > 100 µM | SK-MEL-28 > 100 µM | SK-MEL-2 > 100 µM | SK-MEL-5 > 100 µM | SK-OV-3 > 100 µM | SN12C > 100 µM | SNB-19 > 100 µM | SNB-75 > 100 µM | SW-620 > 100 µM | T47D > 100 µM | TK-10 > 100 µM | U-251 > 100 µM | UACC-257 > 100 µM | UACC-62 > 100 µM | UO-31 > 100 µM

CC[C@@]1(O)C(=O)OCc2c1cc1n(c2=O)Cc2c-1nc1ccccc1c2/C=N\c1ccc(N[C@@H]2c3cc4c(cc3[C@@H](c3cc(OC)c(O)c(OC)c3)[C@H]3C(=O)OC[C@@H]32)OCO4)cc1
active: 786-0 < 0.0104 µM | A549 0.038 µM | ACHN < 0.01 µM | BT-549 0.11 µM | DU-145 < 0.01 µM | HCT-116 0.033 µM | HOP-62 < 0.0136 µM | K562 0.0585 µM | M14 0.0194 µM | MCF7 < 0.01 µM | MOLT-4 < 0.01 µM | NCI-H23 0.0198 µM | NCI-H460 < 0.01 µM | NCI-H522 0.0427 µM | SF-268 < 0.0185 µM | SK-MEL-5 0.0315 µM | SNB-19 0.0446 µM | SR < 0.01 µM | T47D < 0.014 µM | U-251 0.171 µM | UACC-257 0.315 µM | UO-31 0.0403 µM

O=[N+]([O-])/C(Cl)=C(/C(Cl)=C(Cl)Cl)N1CCCCC1
active: MCF7 0.444 µM
4.36 µM: HCT-15
inactive: 786-0 11.3 µM | A498 18.4 µM | A549 12.6 µM | ACHN 16.1 µM | CAKI-1 11.8 µM | CCRF-CEM 4.73 µM | COLO 205 10 µM | DU-145 14 µM | EKVX 20.3 µM | HCC 2998 15.9 µM | HCT-116 6.18 µM | HL-60 2.64 µM | HOP-62 22.6 µM | HOP-92 16.1 µM | HT-29 14.9 µM | Hs-578T 5.06 µM | IGROV-1 10.6 µM | K562 7.64 µM | KM12 14.5 µM | LOX IMVI 7.33 µM | M14 11.2 µM | MDA-MB-231 24 µM | MDA-MB-435 8.81 µM | MDA-N 8.34 µM | MOLT-4 3.27 µM | Malme-3M 2.7 µM | NCI-H226 13.9 µM | NCI-H23 8.49 µM | NCI-H460 18.7 µM | NCI-H522 6.44 µM | NCI/ADR-RES 4.06 µM | OVCAR-3 10.8 µM | OVCAR-4 13.8 µM | OVCAR-5 14.9 µM | OVCAR-8 4.14 µM | PC-3 18.8 µM | RPMI-8226 4.43 µM | RXF 393 7.26 µM | SF-268 11.9 µM | SF-295 23.7 µM | SF-539 16.4 µM | SK-MEL-28 14.5 µM | SK-MEL-2 25.2 µM | SK-MEL-5 6.44 µM | SK-OV-3 28.5 µM | SN12C 14.2 µM | SNB-19 24.5 µM | SNB-75 18.8 µM | SR 3.16 µM | T47D 11.8 µM | TK-10 21.4 µM | U-251 11.8 µM | UACC-62 4.21 µM | UO-31 8.15 µM

COc1ccc2c(=O)c3ccoc3[nH]c2c1
inactive: 786-0 > 100 µM | A498 > 100 µM | ACHN > 100 µM | BT-549 > 100 µM | CAKI-1 > 100 µM | CCRF-CEM > 100 µM | COLO 205 > 100 µM | DU-145 > 100 µM | EKVX > 100 µM | HCC 2998 > 100 µM | HCT-116 > 100 µM | HL-60 > 100 µM | HOP-62 > 100 µM | HOP-92 > 100 µM | HT-29 > 100 µM | Hs-578T 80.9 µM | IGROV-1 > 100 µM | K562 > 100 µM | KM12 > 100 µM | LOX IMVI > 100 µM | M14 > 100 µM | MCF7 > 100 µM | MDA-MB-231 > 100 µM | MDA-MB-435 > 100 µM | MOLT-4 > 100 µM | NCI-H226 > 100 µM | NCI-H23 > 100 µM | NCI-H460 > 100 µM | NCI/ADR-RES > 100 µM | OVCAR-4 > 100 µM | OVCAR-8 > 100 µM | PC-3 > 100 µM | RPMI-8226 > 100 µM | RXF 393 > 100 µM | SF-268 > 100 µM | SF-295 > 100 µM | SF-539 > 100 µM | SK-MEL-28 > 100 µM | SK-MEL-2 > 100 µM | SK-MEL-5 > 100 µM | SK-OV-3 > 100 µM | SNB-19 > 100 µM | SNB-75 > 100 µM | SR > 100 µM | SW-620 > 100 µM | T47D > 100 µM | TK-10 > 100 µM | U-251 > 100 µM | UACC-257 > 100 µM | UACC-62 > 100 µM | UO-31 > 100 µM
> 100 µM: HCT-15
